Reference: patent publication US8067408B2, “Dual pharmacophores—PDE4-muscarinic antagonistics” (priority 2008, dated 2011)

Tested on: M1, M2 (w/Gqi5) and M3 ACh receptors stably expressed in CHO cells
Assay: Calcium mobilization (FLIPR) IC50 determination for antagonists of ACh induced muscarinic receptor activation
Format: cell-based, human
Details: EC80 concentration of ACh, active if IC50 of between 33 uM and 10 nM or less, receptor subtype (M1/M2/M3) not specified
Text: Calcium Mobilization Studies (FLIPR)
Studies to determine the effectiveness of antagonists to cause blockade of functional intracellular calcium fluxes following agonist (ACh) treatment of cloned human receptors.
This system is used for characterizations of antagonist-receptor interactions using four distinct variations of the FLIPR methodology: (a) potency: IC50 determination, (b) potency: pA2 determination, (c) reversibility of antagonist-receptor interaction, or (d) confirmation of no functional agonist activity. • Cell Source The human M1-M3 receptors are cloned and stably expressed in Chinese Hamster Ovary (CHO) cells. The M2 receptors are co-expressed with the chimeric G protein, Gqi5. • Cell lines: M1 stable: Biocat #1044; M2+Gqi5 stable: Biocat #95663; M3 stable: Biocat #1049 • Method of Culture: CHO-M1, CHO-Gqi5-M2 and CHO-M3 cells are cultured to confluence at 37° C. in a humidified incubator with 5% CO2/95% air. CHO-M1 and CHO-M3 are cultured in Alpha MEM with nucleosides and L-glutamine and 10% fetal calf serum. […] The emitted fluorescence from all 96 wells is measured simultaneously using a cooled CCD camera. Data points are collected every second. Maximal change in emission from each well after simultaneous addition of agonist or compound to each of the 96 wells is then exported to an excel spreadsheet. […] Experimental Protocols: • Cell plating: A microtiter plate based calcium mobilization FLIPR (Fluorometric Imaging Plate Reader, Molecular Devices, Sunnyvale Calif., [Schroeder KS, Neagle, BD. FLIPR: a new instrument for accurate, high throughput optical screening. J. Biomol. Screen. 1996; 1:75.]) assay is used for the functional characterization of compounds against M1, M2 (w/Gqi5) and M3 ACh receptors stably expressed in CHO cells. […] The basal emission fluorescence is measured, then the cellular response to an EC80 concentration of ACh (3.3 nM against M1, 10 nM against M2 and 1.0 nM against M3) prepared in KRH assay buffer with 0.1% BSA (no gelatin), is monitored in FLIPR for 90 seconds and then 50 μL of 100 μM ATP (assay concentration of 20 μM) is added to check cell viability (H. M. Sarau et al, 1999. Mol. Pharmacol. 56, 657-663). […]

Compound	IC50: compound pretreatment concentration which inhibits 50% of the ACh induced response
CCc1nc2c(cnn2CC)c(NC2CCOCC2)c1CNCc1cccc(C(=O)NCc2ccc(F)c(-c3cccc(CN4CCNCC4)c3)c2)c1 [Example 228, 3-[({[1,6-Diethyl-4-(tetrahydro-2H-pyran-4-ylamino)-1H-pyrazolo[3,4-b]pyridin-5-yl]methyl}amino)methyl]-N-{[6-fluoro-3′-(1-piperazinylmethyl)-3-biphenylyl]methyl}benzamide]	most active
CCc1nc2c(cnn2CC)c(NC2CCOCC2)c1CNC(=O)c1cccc(C(=O)NCc2cc(-c3cccc(CN4CCN(C)CC4)c3)ccc2OC)c1 [Example 271, N-{[1,6-Diethyl-4-(tetrahydro-2H-pyran-4-ylamino)-1H-pyrazolo[3,4-b]pyridin-5-yl]methyl}-N′-({4-(methyloxy)-3′-[(4-methyl-1-piperazinyl)methyl]-3-biphenylyl}methyl)-1,3-benzenedicarboxamide]	most active
CCc1nc2c(cnn2CC)c(NC2CCOCC2)c1CNC(=O)c1cccc(C(=O)NCc2ccc(F)c(-c3cccc(CNC4CCCC4)c3)c2)c1 [Example 307, N-({3′-[(Cyclopentylamino)methyl]-6-fluoro-3-biphenylyl}methyl)-N′-{[1,6-diethyl-4-(tetrahydro-2H-pyran-4-ylamino)-1H-pyrazolo[3,4-b]pyridin-5-yl]methyl}-1,3-benzenedicarboxamide]	most active
CCc1nc2c(cnn2CC)c(NC2CCOCC2)c1CNC(=O)c1cccc(C(=O)NCc2ccc(F)c(-c3cccc(CNc4ccncc4)c3)c2)c1 [Example 311, N-{[1,6-Diethyl-4-(tetrahydro-2H-pyran-4-ylamino)-1H-pyrazolo[3,4-b]pyridin-5-yl]methyl}-N′-({6-fluoro-3′-[(4-pyridinylamino)methyl]-3-biphenylyl}methyl)-1,3-benzenedicarboxamide]	most active
